Results: US20240043420A1, “7-AZAINDOLE COMPOUNDS FOR INHIBITION OF BCR-ABL TYROSINE KINASES” (EnLiven Therapeutics, Inc., priority 2020, published 2024)

Assays:
HL60 cells = assay: HL60 cell proliferation assay (CellTiter-Glo); type: cell-based; conditions: Homo sapiens, HL-60, 72 h, CellTiter-Glo viability, read-out: Cell Line (IC50, nM) HL60
Protocol: (§1) K562 and HL60 cells, cultured in Iscove's Modified Dulbecco's Media (IMDM) supplemented with 10% FBS, were harvested at 50-80% confluency and plated at 2,000 cells per well (K562) or 1,500 cells per well (HL60) in 384-well tissue culture plates. A subset of wells contained media only (low control, LC). Compounds were serially diluted in DMSO. 40 nL of compound or DMSO only (high control, HC) were added to each well using an Echo 550 liquid handler (Labcyte). The plates were placed in a 37° C. incubator with 5% CO2 for 72 hours. Cell viability was measured using a CellTiter-Glo luminescent cell viability assay (Promega), which allows for relative quantification of metabolically active cells by luminescence-based measurements of intracellular ATP concentrations. Briefly, plates were removed from the incubator and equilibrated for 15 minutes at room temperature prior to the addition of 40 μL of CellTiter-Glo reagent. Plates were then incubated for 30 minutes at room temperature. Luminescence was measured using an EnSpire plate reader (Perkin Elmer). As noted above, luminescence values from wells with DMSO only or media without cells were used as high and low controls (HC and LC), respectively. Normalized percent viability was calculated as follows: percent viability=100×(Lumsample−LumLC)/(LumHC−LumLC).

ABL1 = target: T1, ABL1 (Homo sapiens, UniProt P00519); assay: Luminescence-based ABL kinase assay (ADP-Glo, 300 μM ATP); type: biochemical
T1 construct: purchased Carna Biosciences
Protocol: (§2) Kinase activity of ABL1 was measured using the ADP-Glo system (Promega), which measures formation of ADP using a luminescence-based method. Compounds were serially diluted in DMSO. 20 nL of compound or DMSO only (high control, HC) were added to a 384-well plate (OptiPlate-384, PerkinElmer) using an Echo550 liquid handler (Labcyte). 15 μL of kinase solution (10 mM MgCl2, 0.01% Brij-35, 2 mM DTT, 0.05% BSA, 1 mM EGTA, 50 mM HEPES pH 7.5, and 3.325 nM ABL1 [Carna Biosciences]) were added to each well of the 384-well plate containing the compounds. No enzyme control wells were included (low control, LC). The plate was incubated at room temperature for 30 minutes. 5 μL of a second solution containing 10 mM MgCl2, 0.01% Brij-35, 2 mM DTT, 0.05% BSA, 1 mM EGTA, 50 mM HEPES pH 7.5, 6 μM Peptide 2 (Perkin Elmer, Cat No 760346), and 1.2 mM ATP were added to each well to start the kinase reaction. The plate was incubated for 90 minutes at room temperature. 20 μL of ADP-Glo reagent (Promega) were then added to each well and the plate was incubated for 40 minutes at room temperature. 40 μL of kinase detection reagent (Promega) was added to each well and the plate was incubated for an additional 45 minutes at room temperature. During this step, ADP was converted to ATP, a substrate for luciferase, to produce luminescence signal. Luminescence was measured on an Envision plate reader (Perkin Elmer). Luminescence signal positively correlates with kinase activity. The percent kinase activity was calculated as follows: percent kinase activity=100×(Lumsample−LumLC)/(LumHC−LumLC). As noted above, DMSO only and no enzyme wells were used as high and low controls, respectively. IC50 values were calculated using the XLFit software.

ABL1 (T315I) = ABL1 (T315I) (Homo sapiens, UniProt P00519, T315I); assay: Luminescence-based ABL kinase assay (ADP-Glo, 300 μM ATP), T315I mutant; type: biochemical
Protocol: as §2

K562 cells = assay: K562 cell proliferation assay (CellTiter-Glo); type: cell-based; conditions: Homo sapiens, K562, 72 h, CellTiter-Glo viability, read-out: Cell Line (IC50, nM) K562
Protocol: as §1

SMILES | IC50 (HL60 cells) [nM] | IC50 (ABL1) [nM] | IC50 (ABL1 (T315I)) [nM] | IC50 (K562 cells) [nM]
COc1ccccc1-c1c[nH]c2nc(NC(=O)[C@H]3C[C@H]3C#N)ccc12 (relative stereo) [Compound 106, cis-2-cyano-N-[3-(2-methoxyphenyl)-1H-pyrrolo[2,3-b]pyridin-6-yl]cyclopropane-1-carboxamide] | > 10000 | 78.1 | 26.1 | 275
COc1nccc(C)c1-c1c[nH]c2nc(NC(=O)[C@@H]3C[C@@H]3F)ccc12 [Compound 113, (1S,2S)-2-fluoro-N-[3-(2-methoxy-4-methylpyridin-3-yl)-1H-pyrrolo[2,3-b]pyridin-6-yl]cyclopropane-1-carboxamide] | > 10000 | 20.9 | 15.9 | 174
COc1cc2cc[nH]c2cc1-c1c[nH]c2nc(NC(=O)C3CC3)ccc12 [Compound 17, N-[3-(5-methoxy-1H-indol-6-yl)-1H-pyrrolo[2,3-b]pyridin-6-yl]cyclopropanecarboxamide] | > 10000 | 55.1 | 28.6 | 229
[2H]C([2H])([2H])Oc1ccccc1-c1n[nH]c2nc(NC(=O)[C@@H]3C[C@@H]3F)ccc12 [Compound 101, (1S,2S)-2-fluoro-N-(3-(2-(methoxy-d3)phenyl)-1H-pyrazolo[3,4-b]pyridin-6-yl)cyclopropane-1-carboxamide] | > 10000 | 16.4 | 15.3 | 94.2
COc1cc2[nH]nnc2cc1-c1c[nH]c2nc(NC(=O)[C@@H]3C[C@@H]3F)ccc12 [Compound 96, (1S,2S)-2-fluoro-N-[3-(6-methoxy-1H-1,2,3-benzotriazol-5-yl)-1H-pyrrolo[2,3-b]pyridin-6-yl]cyclopropane-1-carboxamide] | > 10000 | 8.87 | 8.93 | 862
COc1nc(C)nc(OC)c1-c1c[nH]c2nc(NC(=O)[C@@H]3C[C@@H]3F)ccc12 [Compound 142, (1S,2S)—N-(3-(4,6-dimethoxy-2-methylpyrimidin-5-yl)-1H-pyrrolo[2,3-b]pyridin-6-yl)-2-fluorocyclopropane-1-carboxamide] | > 10000 | 14.6 | 14.3 | 34.5
COc1ccc(F)cc1-c1n[nH]c2nc(NC(=O)NCCN3CCN(C)CC3)ccc12 [Compound 79, 3-[3-(5-fluoro-2-methoxyphenyl)-1H-pyrazolo[3,4-b]pyridin-6-yl]-1-[2-(4-methylpiperazin-1-yl)ethyl]urea] | > 10000 | 143 | 108 | 719
CNCCCNC(=O)Nc1ccc2c(-c3c(OC)cccc3OC)c[nH]c2n1 [Compound 130, 1-[3-(2,6-dimethoxyphenyl)-1H-pyrrolo[2,3-b]pyridin-6-yl]-3-[3-(methylamino)propyl]urea] | > 10000 | 67 | 33.7 | 169
COc1ncc(F)c(OC)c1-c1c[nH]c2nc(NC(=O)[C@H]3C[C@H]3F)ccc12 [Compound 125, (1R,2R)-2-fluoro-N-[3-(5-fluoro-2,4-dimethoxypyridin-3-yl)-1H-pyrrolo[2,3-b]pyridin-6-yl]cyclopropane-1-carboxamide] | > 10000 | 22.2 | 39.5 | 104
COc1ncnc(OC2CC2)c1-c1c[nH]c2nc(NC(=O)[C@@H]3C[C@@H]3F)ccc12 [Compound 153, (1S,2S)—N-[3-(4-cyclopropoxy-6-methoxypyrimidin-5-yl)-1H-pyrrolo[2,3-b]pyridin-6-yl]-2-fluorocyclopropane-1-carboxamide] | > 10000 | 4.65 | 1.37 | 8.67
COc1ccccc1-c1c[nH]c2nc(NC(=O)[C@@H]3C[C@@H]3CCO)ccc12 (relative stereo) [Compound 105, cis-2-(2-hydroxyethyl)-N-(3-(2-methoxyphenyl)-1H-pyrrolo[2,3-b]pyridin-6-yl)cyclopropanecarboxamide] | > 10000 | 109 | 19.9 | 489
COc1cccc(OC)c1-c1c[nH]c2nc(NC(=O)NCCN(C)C)ccc12 [Compound 132, 1-[3-(2,6-dimethoxyphenyl)-1H-pyrrolo[2,3-b]pyridin-6-yl]-3-[2-(dimethylamino)ethyl]urea] | > 10000 | 143 | 97.5 | 234

More lines, now with the values ahead:

IC50 (HL60 cells) [nM] | IC50 (ABL1) [nM] | IC50 (ABL1 (T315I)) [nM] | IC50 (K562 cells) [nM] | SMILES
> 10000 | 37.9 | 11.3 | 101 | COc1ccccc1-c1c[nH]c2nc(NC(=O)C3CC3)ccc12 [Compound 1, N-(3-(2-methoxyphenyl)-1H-pyrrolo[2,3-b]pyridin-6-yl)cyclopropanecarboxamide]
> 10000 | 39 | 7.08 | 278 | CCN1CCN(CCNC(=O)Nc2ccc3c(-c4ccccc4OC)c[nH]c3n2)CC1 [Compound 109, 1-[2-(4-ethylpiperazin-1-yl)ethyl]-3-[3-(2-methoxyphenyl)-1H-pyrrolo[2,3-b]pyridin-6-yl]urea]
> 10000 | 74.8 | 18.2 | 382 | COc1ccccc1-c1c[nH]c2nc(NC(=O)NCCC3CCN(C4COC4)CC3)ccc12 [Compound 110, 3-[3-(2-methoxyphenyl)-1H-pyrrolo[2,3-b]pyridin-6-yl]-1-[2-[1-(oxetan-3-yl)piperidin-4-yl]ethyl]urea]
385 | 7.58 | 2.84 | 62.1 | O=C(Nc1ccc2c(-c3ccc4[nH]cnc4c3)c[nH]c2n1)[C@@H]1C[C@@H]1F [Compound 28, (1S,2S)—N-[3-(1H-1,3-benzodiazol-5-yl)-1H-pyrrolo[2,3-b]pyridin-6-yl]-2-fluorocyclopropane-1-carboxamide]
> 10000 | 99.2 | 32.5 | 751 | CCNC(=O)Nc1ccc2c(-c3ccccc3OC)c[nH]c2n1 [Compound 103, 3-ethyl-1-[3-(2-methoxyphenyl)-1H-pyrrolo[2,3-b]pyridin-6-yl]urea]
> 10000 | 27.4 | 54.5 | 333 | O=C(NCCN1CCNCC1)Nc1ccc2c(-c3ccccc3OC3CC3)n[nH]c2n1 [Compound 136, 3-[3-(2-cyclopropoxyphenyl)-1H-pyrazolo[3,4-b]pyridin-6-yl]-1-[2-(piperazin-1-yl)ethyl]urea]
> 10000 | 113 | 32.3 | 223 | Cc1ccccc1-c1c[nH]c2nc(NC(=O)C3CC3)ccc12 [Compound 4, N-[3-(2-methylphenyl)-1H-pyrrolo[2,3-b]pyridin-6-yl]cyclopropanecarboxamide]
> 10000 | 91.2 | 52.8 | 416 | COc1ncccc1-c1c[nH]c2nc(NC(=O)C3CC3)ccc12 [Compound 14, N-[3-(2-methoxypyridin-3-yl)-1H-pyrrolo[2,3-b]pyridin-6-yl]cyclopropanecarboxamide]
7250 | 5.34 | 27.8 | 46 | COc1cc2scnc2cc1-c1c[nH]c2nc(NC(=O)[C@@H]3C[C@@H]3F)ccc12 [Compound 85, (1S,2S)-2-fluoro-N-[3-(6-methoxy-1,3-benzothiazol-5-yl)-1H-pyrrolo[2,3-b]pyridin-6-yl]cyclopropane-1-carboxamide]
7580 | 10.8 | 6.36 | 55.6 | O=C(Nc1ccc2c(-c3ccccc3OC3CC3)n[nH]c2n1)[C@@H]1C[C@@H]1F [Compound 94, (1S,2S)—N-(3-(2-cyclopropoxyphenyl)-1H-pyrazolo[3,4-b]pyridin-6-yl)-2-fluorocyclopropane-1-carboxamide]
